Columns and labels:
[1] = test system: Mus musculus; assay: Toxicity day survivors was determined by the ratio of animals survived to that of test animals at 30 mg/kg intraperitoneally in CD2F1 mice; 4/6; assay type: organism-based; parameters: dose 30 mg/kg, route intraperitoneal; settings: in vivo, ip
[2] = test system: Mus musculus; assay: Ratio of treated to that of untreated tumor-bearing control animals at 15 mg/kg intraperitoneally in CD2F1 mice was determined; assay type: functional; settings: route intraperitoneal
[3] = test system: Mus musculus; assay: Toxicity day survivors was determined by the ratio of animals survived to that of test animals at 60 mg/kg intraperitoneally in CD2F1 mice; 4/6; assay type: organism-based; parameters: dose 60 mg/kg, route intraperitoneal; settings: in vivo, ip
[4] = test system: Mus musculus; assay: Ratio of treated to that of untreated tumor-bearing control animals at 1.88 mg/kg intraperitoneally in CD2F1 mice was determined; assay type: functional; settings: route intraperitoneal
[5] = test system: Mus musculus; assay: Body weight change of test animals to that of control was determined after injection at 60 mg/kg intraperitoneally in CD2F1 mice; assay type: functional; settings: route intraperitoneal
[6] = test system: Mus musculus; assay: Toxicity day survivors was determined by the ratio of animals survived to that of test animals at 3.75 mg/kg intraperitoneally in CD2F1 mice; 6/6; assay type: organism-based; parameters: dose 3.75 mg/kg, route intraperitoneal; settings: in vivo, ip
[7] = test system: Mus musculus; assay: Body weight change of test animals to that of control was determined after injection at 3.75 mg/kg intraperitoneally in CD2F1 mice; assay type: functional; settings: route intraperitoneal
[8] = test system: Mus musculus; assay: Toxicity day survivors was determined by the ratio of animals survived to that of test animals at 15 mg/kg intraperitoneally in CD2F1 mice; 5/5; assay type: organism-based; parameters: dose 15 mg/kg, route intraperitoneal; settings: in vivo, ip
[9] = test system: Mus musculus; assay: Net log cell kill was determined after injecting 1.88 mg/kg intraperitoneally in CD2F1 mice; assay type: functional; settings: route intraperitoneal
[10] = test system: Mus musculus; assay: Net log cell kill was determined after injecting 15 mg/kg intraperitoneally in CD2F1 mice; assay type: functional; settings: route intraperitoneal
[11] = test system: Mus musculus; assay: Toxicity day survivors was determined by the ratio of animals survived to that of test animals at 1.88 mg/kg intraperitoneally in CD2F1 mice; 6/6; assay type: organism-based; parameters: dose 1.88 mg/kg, route intraperitoneal; settings: in vivo, ip
[12] = test system: Mus musculus; assay: Ratio of treated to that of untreated tumor-bearing control animals at 7.5 mg/kg intraperitoneally in CD2F1 mice was determined; assay type: functional; settings: route intraperitoneal
[13] = test system: Mus musculus; assay: Body weight change of test animals to that of control was determined after injection at 15 mg/kg intraperitoneally in CD2F1 mice; assay type: functional; settings: route intraperitoneal
[14] = test system: Mus musculus; assay: Ratio of treated to that of untreated tumor-bearing control animals at 3.75 mg/kg intraperitoneally in CD2F1 mice was determined; assay type: functional; settings: route intraperitoneal
[15] = test system: Mus musculus; assay: Body weight change of test animals to that of control was determined after injection at 30 mg/kg intraperitoneally in CD2F1 mice; assay type: functional; settings: route intraperitoneal
[16] = test system: Mus musculus; assay: Body weight change of test animals to that of control was determined after injection at 1.88 mg/kg intraperitoneally in CD2F1 mice; assay type: functional; settings: route intraperitoneal
[17] = test system: Mus musculus; assay: Net log cell kill was determined after injecting 3.75 mg/kg intraperitoneally in CD2F1 mice; assay type: functional; settings: route intraperitoneal
[18] = test system: Mus musculus; assay: Toxicity day survivors was determined by the ratio of animals survived to that of test animals at 7.5 mg/kg intraperitoneally in CD2F1 mice; 6/6; assay type: organism-based; parameters: dose 7.5 mg/kg, route intraperitoneal; settings: in vivo, ip
[19] = test system: Mus musculus; assay: Body weight change of test animals to that of control was determined after injection at 7.5 mg/kg intraperitoneally in CD2F1 mice; assay type: functional; settings: route intraperitoneal
[20] = test system: Mus musculus; assay: Net log cell kill was determined after injecting 7.5 mg/kg intraperitoneally in CD2F1 mice; assay type: functional; settings: route intraperitoneal
[21] = test system: Mus musculus; assay: Toxicity day survivors was determined by the ratio of animals survived to that of test animals at 120 mg/kg intraperitoneally in CD2F1 mice; 6/6; assay type: organism-based; parameters: dose 120 mg/kg, route intraperitoneal; settings: in vivo, ip
[22] = test system: Mus musculus; assay: Net log cell kill was determined after injecting 120 mg/kg intraperitoneally in CD2F1 mice; assay type: functional; settings: route intraperitoneal
[23] = test system: Mus musculus; assay: Toxicity day survivors was determined by the ratio of animals survived to that of test animals at 240 mg/kg intraperitoneally in CD2F1 mice; 6/6; assay type: organism-based; parameters: dose 240 mg/kg, route intraperitoneal; settings: in vivo, ip
[24] = test system: Mus musculus; assay: Body weight change of test animals to that of control was determined after injection at 240 mg/kg intraperitoneally in CD2F1 mice; assay type: functional; settings: route intraperitoneal
[25] = test system: Mus musculus; assay: Toxicity day survivors was determined by the ratio of animals survived to that of test animals at 60 mg/kg intraperitoneally in CD2F1 mice; 6/6; assay type: organism-based; parameters: dose 60 mg/kg, route intraperitoneal; settings: in vivo, ip
[26] = test system: Mus musculus; assay: Toxicity day survivors was determined by the ratio of animals survived to that of test animals at 30 mg/kg intraperitoneally in CD2F1 mice; 6/6; assay type: organism-based; parameters: dose 30 mg/kg, route intraperitoneal; settings: in vivo, ip
[27] = test system: Mus musculus; assay: Net log cell kill was determined after injecting 30 mg/kg intraperitoneally in CD2F1 mice; assay type: functional; settings: route intraperitoneal
[28] = test system: Mus musculus; assay: Net log cell kill was determined after injecting 240 mg/kg intraperitoneally in CD2F1 mice; assay type: functional; settings: route intraperitoneal
[29] = test system: Mus musculus; assay: Ratio of treated to that of untreated tumor-bearing control animals at 240 mg/kg intraperitoneally in CD2F1 mice was determined; assay type: functional; settings: route intraperitoneal
[30] = test system: Mus musculus; assay: Ratio of treated to that of untreated tumor-bearing control animals at 120 mg/kg intraperitoneally in CD2F1 mice was determined; assay type: functional; settings: route intraperitoneal
[31] = test system: Mus musculus; assay: Ratio of treated to that of untreated tumor-bearing control animals at 30 mg/kg intraperitoneally in CD2F1 mice was determined; assay type: functional; settings: route intraperitoneal
[32] = test system: Mus musculus; assay: Body weight change of test animals to that of control was determined after injection at 120 mg/kg intraperitoneally in CD2F1 mice; assay type: functional; settings: route intraperitoneal
[33] = test system: Mus musculus; assay: Net log cell kill was determined after injecting 60 mg/kg intraperitoneally in CD2F1 mice; assay type: functional; settings: route intraperitoneal
[34] = test system: Mus musculus; assay: Ratio of treated to that of untreated tumor-bearing control animals at 60 mg/kg intraperitoneally in CD2F1 mice was determined; assay type: functional; settings: route intraperitoneal

Which TDS [1] does the source give for `COc1ccc2c(c1)CCn1cc(COC(=O)NC(C)C)c(COC(=O)NC(C)C)c1-2` here?
The TDS was 4.

And the T/C [2]?
The T/C was 125%.

And the TDS [3]?
Its TDS is 4.

And the T/C [4]?
The T/C was 174%.

And the T-C [5]?
Its T-C is -4.6 g.

What about the TDS [6] of the same compound?
The TDS was 6.

What about the T-C [7] of the same compound?
Its T-C is -3.4 g.

What about the TDS [8] of the same compound?
Its TDS is 5.

And the KE [9]?
Its KE is 2.18.

And the KE [10]?
Its KE is -1.07.

And the TDS [11]?
The TDS was 6.

And the T/C [12]?
The T/C was 232%.

And the T-C [13]?
Its T-C is -3 g.

What about the T/C [14] of the same compound?
The T/C was 194%.

What about the T-C [15] of the same compound?
Its T-C is -3.1 g.

And the T-C [16]?
The T-C was -1.8 g.

What about the KE [17] of the same compound?
The KE was 3.46.

What about the TDS [18] of the same compound?
The TDS was 6.

And the T-C [19]?
The T-C was -4.8 g.

And the KE [20]?
Its KE is 5.83.

For `Cc1c(COC(=O)NC(C)C)c(COC(=O)NC(C)C)c2ccc3ccccc3n12`, which TDS [21] is on record?
Its TDS is 6.

What about the KE [22] of the same compound?
The KE was -1.5.

What about the T-C [5] of the same compound?
The T-C was -1.1 g.

What about the TDS [23] of the same compound?
Its TDS is 6.

And the T-C [24]?
The T-C was -3.5 g.

What about the TDS [25] of the same compound?
The TDS was 6.

What about the TDS [26] of the same compound?
The TDS was 6.

What about the KE [27] of the same compound?
Its KE is -0.53.

What about the KE [28] of the same compound?
The KE was -0.5.

What about the T/C [29] of the same compound?
Its T/C is 129%.

What about the T-C [15] of the same compound?
The T-C was -0.5 g.

And the T/C [30]?
The T/C was 106%.

And the T/C [31]?
The T/C was 135%.

And the T-C [32]?
Its T-C is -1.8 g.

What about the KE [33] of the same compound?
The KE was 0.47.

What about the T/C [34] of the same compound?
The T/C was 139%.

From ChEMBL document CHEMBL1124001, “Synthesis and antileukemic activity of bis[[(carbamoyl)oxy]methyl]- substituted pyrrolo[2,1-a]isoquinolines, pyrrolo[1,2-a]quinolines, pyrrolo[2,1-a]isobenzazepines, and pyrrolo[1,2-a]benzazepines” (J Med Chem, 1988)
